Results published in ChEMBL document CHEMBL5331108, “Design and Synthesis of 4-Fluorophenyl-5-methylene-2(5H)-furanone Derivatives as Potent Quorum Sensing Inhibitors” (J Med Chem, 2023).
In brackets after ≈: the same amount, converted by molar mass. Activity calls are given as the source filed them. The rule behind the calls is not given here.

Tests used:
[1] = system: Staphylococcus aureus; assay: Antibiofilm activity against Staphylococcus aureus ATCC33591 assessed as inhibition of biofilm formation incubated for 24 hrs by crystal violet staining based broth microdilution method; type: functional, organism-based; details: ATCC33591, 24 h
[2] = system: Enterococcus faecalis; assay: Antibiofilm activity against Enterococcus faecalis ATCC19433 assessed as inhibition of biofilm formation incubated for 24 hrs by crystal violet staining based broth microdilution method; type: functional, organism-based; details: ATCC19433, 24 h
[3] = system: Klebsiella pneumoniae; assay: Antibiofilm activity against Klebsiella pneumoniae ATCC13882 assessed as inhibition of biofilm formation incubated for 24 hrs by crystal violet staining based broth microdilution method; type: functional, organism-based; details: ATCC13882, 24 h
[4] = system: Pseudomonas aeruginosa; assay: Synergistic antibacterial activity against Pseudomonas aeruginosa PAO1 assessed as inhibition of bacterial growth at 1 to 256 ug/ml incubated for 24 hrs in the presence of Clarithromycin by absorbance based microplate reader analysis; type: functional, organism-based; details: dose 1-256 µg/ml
[5] = system: Escherichia coli; assay: Antibacterial activity against penicillin-susceptible Escherichia coli ATCC25922 assessed as inhibition of bacterial growth incubated for 20 hrs by CLSI protocol based microdilution method; type: functional
[6] = Inhibition of quorum sensing system in Pseudomonas aeruginosa PAO1 assessed as inhibition of protease activity at 102.4 ug/ml incubated for 24 hrs by absorbance based assay; details: dose 102.4 µg/ml
[7] = system: Pseudomonas aeruginosa; assay: Antibacterial activity against penicillin-susceptible Pseudomonas aeruginosa ATCC27853 assessed as inhibition of bacterial growth incubated for 20 hrs by CLSI protocol based microdilution method; type: functional
[8] = system: Bacillus subtilis; assay: Antibacterial activity against penicillin-susceptible Bacillus subtilis ATCC9372 assessed as inhibition of bacterial growth incubated for 20 hrs by CLSI protocol based microdilution method; type: functional
[9] = system: Pseudomonas aeruginosa; assay: Antibacterial activity against wild type Pseudomonas aeruginosa […] CGMCC1.12483 assessed as inhibition of bacterial growth incubated for 20 hrs by CLSI protocol based microdilution method; type: functional
[10] = system: Pseudomonas aeruginosa; assay: Antibacterial activity against Pseudomonas aeruginosa PAO1 assessed as inhibition of bacterial growth at 256 ug/ml measured after 25 hrs by absorbance based assay; type: functional, organism-based; details: dose 256.0 µg/ml
[11] = Inhibition of quorum sensing system in Pseudomonas aeruginosa PAO1 assessed as inhibition of pyocyanin production at 102.4 ug/ml incubated for 18 hrs by absorbance based assay; details: dose 102.4 µg/ml
[12] = system: Bacillus pumilus; assay: Antibacterial activity against penicillin-susceptible Bacillus pumilus CMCC63202 assessed as inhibition of bacterial growth incubated for 20 hrs by CLSI protocol based microdilution method; type: functional
[13] = system: Pseudomonas aeruginosa; assay: Antibacterial activity against Pseudomonas aeruginosa 27853 assessed as inhibition of bacterial growth at 256 ug/ml measured after 25 hrs by absorbance based assay; type: functional, organism-based; details: dose 256.0 µg/ml
[14] = system: Pseudomonas aeruginosa; assay: Synergistic antibacterial activity against Pseudomonas aeruginosa PAO1 assessed as inhibition of bacterial growth at 1 to 256 ug/ml incubated for 24 hrs in the presence of ciprofloxacin by absorbance based microplate reader analysis; type: functional, organism-based; details: dose 1-256 µg/ml
[15] = system: Staphylococcus aureus; assay: Antibacterial activity against erthromycin-susceptible Staphylococcus aureus ATCC25923 assessed as inhibition of bacterial growth incubated for 20 hrs by CLSI protocol based microdilution method; type: functional
[16] = system: Pseudomonas aeruginosa; assay: Synergistic antibacterial activity against Pseudomonas aeruginosa 27853 assessed as inhibition of bacterial growth at 1 to 256 ug/ml incubated for 24 hrs in the presence of Ciprofloxacin by absorbance based microplate reader analysis; type: functional, organism-based; details: dose 1-256 µg/ml
[17] = Inhibition of quorum sensing system in Pseudomonas aeruginosa PAO1 assessed as inhibition of rhamnolipid production at 102.4 ug/ml incubated for 24 hrs by absorbance based assay; details: dose 102.4 µg/ml
[18] = system: Pseudomonas aeruginosa; assay: Inhibition of biofilm formation in Pseudomonas aeruginosa PAO1 at 32 ug/ml incubated for 20 hrs by crystal violet staining based analysis; type: functional; details: dose 32.0 µg/ml
[19] = system: Staphylococcus aureus; assay: Antibacterial activity against methicillin-resistant Staphylococcus aureus ATCC43300 assessed as inhibition of bacterial growth incubated for 20 hrs by CLSI protocol based microdilution method; type: functional
[20] = system: Pseudomonas aeruginosa; assay: Synergistic antibacterial activity against Pseudomonas aeruginosa 27853 assessed as inhibition of bacterial growth incubated for 24 hrs in the presence of Clarithromycin by absorbance based microplate reader analysis; type: functional, organism-based; details: dose 1-256 µg/ml
[21] = Hemolytic activity in mouse red blood cells assessed as hemolysis rate at 512 ug/ml incubated for 1 hrs by microplate reader analysis relative to control; type: toxicity, cell-based, Erythrocyte; details: red blood cells (erythrocytes), at 512 µg/mL, read-out: Activity
[22] = system: Pseudomonas aeruginosa; assay: Synergistic antibacterial activity against Pseudomonas aeruginosa 27853 assessed as inhibition of bacterial growth by measuring fold change in ciprofloxacin at 1 to 256 ug/ml incubated for 24 hrs by absorbance based microplate reader analysis; type: functional; details: dose 1-256 µg/ml
[23] = system: Pseudomonas aeruginosa; assay: Inhibition of biofilm formation in Pseudomonas aeruginosa PAO1 assessed as effect on biofilm morphology at 102.4 ug/ml incubated for 24 hrs by scanning electron microscopic analysis; type: functional, organism-based; details: dose 102.4 µg/ml
[24] = system: Pseudomonas aeruginosa; assay: Antibacterial activity against Pseudomonas aeruginosa 27853 assessed as inhibition of bacterial growth at […] incubated for 24 hrs by absorbance based microplate reader analysis relative to control; type: functional; details: dose 3.2 µg/ml
[25] = system: Pseudomonas aeruginosa; assay: Synergistic antibacterial activity against Pseudomonas aeruginosa 27853 assessed as inhibition of bacterial growth at 1 to 128 ug/ml incubated for 24 hrs by absorbance based microplate reader analysis; type: functional, organism-based; details: dose 1-128 µg/ml
[26] = system: Pseudomonas aeruginosa; assay: Synergistic antibacterial activity against Pseudomonas aeruginosa PAO1 assessed as inhibition of bacterial growth at highest concentration incubated for 24 hrs in the presence of ciprofloxacin by absorbance based microplate reader analysis relative to control; type: functional

SMILES	Activity [4]	MIC [5] [µg/mL]	inhibition [6]	MIC [7] [µg/mL]	MIC [8] [µg/mL]	MIC [9] [µg/mL]	Activity [10]	inhibition [11]	MIC [12] [µg/mL]	Activity [13]	Activity [14]	MIC [15] [µg/mL]	Activity [16]	inhibition [17]	inhibition [18]	MIC [19] [µg/mL]	Activity [20]	hemolysis at 1 h, 512 ug/ml [21] [%]	fold change (FC) [22]	also measured
O=C1O/C(=C\c2cc(Br)c(O)c(Br)c2)C(c2ccc(O)c(Br)c2)=C1C(=O)c1ccccc1																				IC50 [1]: 0.7 µg/mL (≈ 1.13 µM); IC50 [2]: 3.6 µg/mL (≈ 5.8 µM); IC50 [3]: 7.5 µg/mL (≈ 12.1 µM)
C=C1OC(=O)C(CNC(=O)c2cccc(OC)c2)=C1c1ccc(F)cc1	Active	> 512	8.6%	> 512	> 512	> 512	inactive	Active	> 512	inactive	Active	> 512	Active	Active	Active	32 (≈ 90.6 µM)	Dose-Dependent Effect			
C=C1C(c2ccc(F)cc2)=C(CNC(=O)c2ccc(C)cc2)C(=O)N1c1ccccc1C	Active	> 512	8.6%	> 512	> 512	512 (≈ 1200 µM)	inactive	38.3%	512 (≈ 1200 µM)	inactive	Active	> 512	Active	45.9%	inactive	> 512	Dose-Dependent Effect	< 2.5	>=1.5	
C=C1OC(=O)C(CNC(=O)CCCCCCCCCC)=C1c1ccc(F)cc1		> 512	Active	> 512	> 512	> 512	inactive	44.7%	> 512	inactive		> 512		Active	inactive	> 512				
C=C1OC(=O)C(CNC(=O)c2ccc(Cl)cc2)=C1c1ccc(F)cc1	Active	> 512	8.6%	> 512	> 512	> 512	inactive	Active	> 512	inactive	Active	> 512	Active	47.3%	Active	> 512	Dose-Dependent Effect	> 2.5		
CC[C@H]1OC(=O)[C@H](C)[C@@H](O[C@H]2C[C@@](C)(OC)[C@@H](O)[C@H](C)O2)[C@H](C)[C@@H](O[C@@H]2O[C@H](C)C[C@H](N(C)C)[C@H]2O)[C@](C)(O)C[C@@H](C)CN(C)[C@H](C)[C@@H](O)[C@]1(C)O [AZITHROMYCIN]		128 (≈ 171 µM)		16 (≈ 21.4 µM)	0.25 (≈ 0.334 µM)	256 (≈ 342 µM)			0.25 (≈ 0.334 µM)			0.25 (≈ 0.334 µM)				256 (≈ 342 µM)				inhibition [23]: inactive
C=C1OC(=O)C(CNC(=O)c2ccc(C)cc2)=C1c1cccc(Cl)c1		> 512	Active	> 512	> 512	> 512	inactive	Active	> 512	inactive		> 512		Active	inactive	> 512				
CC[C@H]1OC(=O)[C@H](C)[C@@H](O[C@H]2C[C@@](C)(OC)[C@@H](O)[C@H](C)O2)[C@H](C)[C@@H](O[C@@H]2O[C@H](C)C[C@H](N(C)C)[C@H]2O)[C@](C)(OC)C[C@@H](C)C(=O)[C@H](C)[C@@H](O)[C@]1(C)O [CLARITHROMYCIN]		128 (≈ 171 µM)		128 (≈ 171 µM)	0.25 (≈ 0.334 µM)	256 (≈ 342 µM)			0.25 (≈ 0.334 µM)			0.25 (≈ 0.334 µM)				16 (≈ 21.4 µM)				inhibition at […] [24]: 32.7%
C=C1C(c2ccc(F)cc2)=C(CNC(=O)c2ccc(C)cc2)C(=O)N1c1ccc(C)cc1		> 512	8.6%	> 512	512 (≈ 1200 µM)	512 (≈ 1200 µM)	inactive	Active	512 (≈ 1200 µM)	inactive	Active	> 512	Active	49.7%	inactive	> 512	Dose-Dependent Effect	> 2.5	>=1.5	
C=C1OC(=O)C(CNC(=O)c2ccc(Br)cc2)=C1c1ccc(F)cc1	Active	> 512	8.6%	> 512	16 (≈ 39.8 µM)	> 512	inactive	34.7%	> 512	inactive	Active	> 512	Active	48.5%	inactive	8 (≈ 19.9 µM)	Dose-Dependent Effect	> 2.5	>=1.5	Activity [25]: Active
C=C1C(c2ccc(F)cc2)=C(CNC(=O)c2ccc(C)cc2)C(=O)N1c1cccc(C)c1		> 512	8.6%	> 512	> 512	512 (≈ 1200 µM)	inactive	35.2%	512 (≈ 1200 µM)	inactive	Active	> 512	Active	57.1%	Active	> 512	Dose-Dependent Effect	> 2.5	>=1.5	
C=C1OC(=O)C(CNC(=O)c2ccc(OC)cc2)=C1c1ccc(F)cc1	Active	> 512	8.6%	> 512	128 (≈ 362 µM)	> 512	inactive	44%	32 (≈ 90.6 µM)	inactive	Active	32 (≈ 90.6 µM)	Active	Active	Active	64 (≈ 181 µM)	Dose-Dependent Effect			inhibition (INH) [26]: 90.53%
